Converted amounts (≈) assume the structure as drawn.
How the values were obtained:
Test in all cases: ≥ marks a high value that may be exact or a test limit, other limits are often not marked, values filed in µg/mL are converted to µM
[1] = test system: Acinetobacter baumannii MTCC 9829
[2] = test system: Alcaligenes faecalis MTCC 1937
[3] = test system: Alkalihalobacillus alcalophilus MTCC 860
[4] = test system: Bordetella bronchiseptica MTCC 6837
[5] = test system: Citrobacter freundii MTCC 1658
[6] = test system: Citrobacter koseri MTCC 1657
[7] = test system: Corynebacterium glutamicum MTCC 2679
[8] = test system: Enterococcus faecalis MTCC 439
[9] = test system: Escherichia coli K12 MG1655
[10] = test system: Haemophilus influenzae MTCC 621
[11] = test system: Klebsiella aerogenes MTCC 111
[12] = test system: Klebsiella oxytoca MTCC 2275
[13] = test system: Klebsiella pneumoniae MTCC 7407
[14] = test system: Pluralibacter gergoviae MTCC 3826
[15] = test system: Proteus mirabilis MTCC 3158
[16] = test system: Proteus vulgaris MTCC 1771
[17] = test system: Pseudomonas aeruginosa MTCC 3542
[18] = test system: Salmonella enterica MTCC 9844
[19] = test system: Salmonella enterica subsp. enterica serovar Typhimurium ATCC 14028
[20] = test system: Shigella boydii MTCC 11947
[21] = test system: Shigella flexneri MTCC 1457
[22] = test system: Staphylococcus aureus MTCC 3160
[23] = test system: Staphylococcus haemolyticus MTCC 3383
[24] = test system: Stenotrophomonas maltophilia MTCC 1890
[25] = test system: Vibrio cholerae MTCC 3904
[26] = test system: Acinetobacter baumannii ATCC BAA-1605
[27] = test system: Acinetobacter baumannii KCCM 1053
[28] = test system: Bacillus subtilis KCTC 3068
[29] = test system: Enterococcus faecalis ATCC 51575
[30] = test system: Enterococcus faecalis KCCM 11814
[31] = test system: Escherichia coli KCTC 1682
[32] = test system: Pseudomonas aeruginosa CCARM 2180
[33] = test system: Pseudomonas aeruginosa KCTC 1637
[34] = test system: Salmonella typhimurium KCTC 1926
[35] = test system: Staphylococcus aureus KCCM 40510
[36] = test system: Staphylococcus aureus KCTC 1621
[37] = test system: Staphylococcus epidermidis KCTC 1917
[38] = test system: Escherichia coli C25
[39] = test system: Staphylococcus aureus ATCC 25923
[40] = test system: Escherichia coli ATCC 25922
[41] = test system: Listeria monocytogenes KCTC 19111
[42] = test system: Pseudomonas aeruginosa 3241
[43] = test system: Pseudomonas aeruginosa 4007
[44] = test system: Pseudomonas aeruginosa ATCC 15692
[45] = test system: Pseudomonas aeruginosa CCARM 2073
[46] = test system: Pseudomonas aeruginosa CCARM 2075
[47] = test system: Staphylococcus aureus 3399
[48] = test system: Staphylococcus aureus 3518
[49] = test system: Staphylococcus aureus CCARM 3125
[50] = test system: Staphylococcus aureus CCARM 3709

CC[C@H](C)[C@H](NC(=O)[C@@H](NC(=O)[C@H](CCC(N)=O)NC(=O)[C@H](CCCN=C(N)N)NC(=O)[C@H](C)NC(=O)[C@H](C)NC(=O)[C@H](C)NC(=O)[C@H](Cc1c[nH]c2ccccc12)NC(=O)[C@@H](N)CCC(=O)O)C(C)C)C(=O)N[C@H](C(=O)N[C@@H](Cc1cnc[nH]1)C(=O)N[C@@H](C)C(=O)N[C@H](C(=O)N[C@@H](CCCN=C(N)N)C(=O)N[C@@H](CCCCN)C(=O)N[C@@H](Cc1ccc(O)cc1)C(=O)O)[C@@H](C)O)[C@@H](C)CC [EWAAARQVIIHATRKY]
MIC [1]: ≥ 66.9 µM | MIC [2]: ≥ 66.9 µM | MIC [3]: ≥ 66.9 µM | MIC [4]: ≥ 66.9 µM | MIC [5]: ≥ 66.9 µM | MIC [6]: ≥ 66.9 µM | MIC [7]: ≥ 33.5 µM | MIC [8]: ≥ 66.9 µM | MIC [9]: ≥ 66.9 µM | MIC [10]: ≥ 66.9 µM | MIC [11]: ≥ 66.9 µM | MIC [12]: ≥ 66.9 µM | MIC [13]: ≥ 66.9 µM | MIC [14]: ≥ 66.9 µM | MIC [15]: ≥ 66.9 µM | MIC [16]: ≥ 66.9 µM | MIC [17]: ≥ 66.9 µM | MIC [18]: ≥ 66.9 µM | MIC [19]: > 66.9 µM | MIC [20]: ≥ 66.9 µM | MIC [21]: ≥ 66.9 µM | MIC [22]: ≥ 66.9 µM | MIC [23]: ≥ 66.9 µM | MIC [24]: ≥ 66.9 µM | MIC [25]: ≥ 66.9 µM

CC[C@H](C)[C@@H]1NC(=O)[C@H](CCCCN)NC(=O)[C@@H](NC(=O)[C@H](CC(C)C)NC(=O)[C@@H](N)CCCCN)CSSC[C@@H](C(=O)N[C@@H](CCCCN)C(=O)O)NC(=O)[C@H](C(C)C)NC(=O)[C@H](CCCCN)NC(=O)[C@H]([C@@H](C)CC)NC(=O)[C@H](C(C)C)NC(=O)[C@H](C(C)C)NC1=O [KLCKIVVIKVCK]
MIC [26]: ≥ 64 µM | MIC [27]: ≥ 64 µM | MIC [28]: ≥ 64 µM | MIC [29]: ≥ 64 µM | MIC [30]: ≥ 64 µM | MIC [31]: 8 µM (≈ 11 µg/mL) | MIC [32]: ≥ 64 µM | MIC [33]: ≥ 64 µM | MIC [34]: ≥ 64 µM | MIC [35]: ≥ 64 µM | MIC [36]: ≥ 64 µM | MIC [37]: ≥ 32 µM

CC[C@H](C)[C@H](NC(=O)CNC(=O)[C@H](CCCN=C(N)N)NC(=O)[C@@H](NC(=O)[C@@H](NC(=O)[C@H](CCCN=C(N)N)NC(=O)[C@@H](NC(=O)[C@@H](NC(=O)[C@@H](N)CCCCN)[C@@H](C)CC)[C@@H](C)CC)C(C)C)[C@@H](C)CC)C(=O)N[C@H](C(=O)N[C@@H](CCCN=C(N)N)C(=O)N[C@@H](CCCN=C(N)N)C(=O)N[C@@H](CCCN=C(N)N)C(N)=O)[C@@H](C)CC [KIIRVIRGIIRRR]
MIC [38]: 9.5 µM (≈ 15.7 µg/mL) | MIC [39]: 9.5 µM (≈ 15.7 µg/mL)

CC(C)C[C@H](NC(=O)[C@H](Cc1c[nH]c2ccccc12)NC(=O)[C@H](CCCCN)NC(=O)[C@H](CCCCN)NC(=O)[C@H](CC(C)C)NC(=O)[C@H](Cc1c[nH]c2ccccc12)NC(=O)[C@H](CCCCN)NC(=O)[C@H](CCCCN)NC(=O)[C@H](CC(C)C)NC(=O)[C@H](Cc1c[nH]c2ccccc12)NC(=O)[C@@H](N)CCCCN)C(=O)N[C@@H](CCCCN)C(N)=O [KWLKKWLKKWLK]
MIC [40]: 1 µM (≈ 1.68 µg/mL) | MIC [41]: 2 µM (≈ 3.37 µg/mL) | MIC [42]: 2 µM (≈ 3.37 µg/mL) | MIC [43]: 2 µM (≈ 3.37 µg/mL) | MIC [44]: 2 µM (≈ 3.37 µg/mL) | MIC [45]: 2 µM (≈ 3.37 µg/mL) | MIC [46]: 1 µM (≈ 1.68 µg/mL) | MIC [34]: 2 µM (≈ 3.37 µg/mL) | MIC [47]: 2 µM (≈ 3.37 µg/mL) | MIC [48]: 2 µM (≈ 3.37 µg/mL) | MIC [39]: 2 µM (≈ 3.37 µg/mL) | MIC [49]: 2 µM (≈ 3.37 µg/mL) | MIC [50]: 2 µM (≈ 3.37 µg/mL) | MIC [37]: 1 µM (≈ 1.68 µg/mL)

Source: DBAASP
